Reference: publication PMC6880192, “Structure–Effect Relationships of Novel Semi-Synthetic Cannabinoid Derivatives” (Frontiers in Pharmacology, 2019)
“Also recorded” adds a separate entry of the source.

These compounds were tested against T1, CB1-receptor (Homo sapiens, UniProt P21554) (assay: biochemical). Settings: mean ± SEM, n = 3; radioligand [3H]-CP55940.
T1 construct: expressed in transfected cells; host or cells: CHO cells, stably transfected with CB1 cDNA (from IMIBIC) and transiently with CRE-luc
T1 sequence (P21554 whole entry): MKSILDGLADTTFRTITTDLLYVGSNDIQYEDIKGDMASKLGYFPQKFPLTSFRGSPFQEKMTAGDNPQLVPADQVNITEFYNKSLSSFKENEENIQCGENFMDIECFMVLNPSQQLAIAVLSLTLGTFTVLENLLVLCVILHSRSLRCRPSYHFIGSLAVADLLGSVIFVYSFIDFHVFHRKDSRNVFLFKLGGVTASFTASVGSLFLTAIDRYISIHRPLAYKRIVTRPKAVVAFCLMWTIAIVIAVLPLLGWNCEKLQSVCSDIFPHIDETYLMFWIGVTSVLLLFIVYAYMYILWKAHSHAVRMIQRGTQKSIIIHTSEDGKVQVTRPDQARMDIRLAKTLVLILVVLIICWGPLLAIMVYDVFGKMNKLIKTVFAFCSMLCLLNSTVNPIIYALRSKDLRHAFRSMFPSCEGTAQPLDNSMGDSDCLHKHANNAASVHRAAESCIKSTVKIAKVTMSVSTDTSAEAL
Assay type: binding
With `C=C(C)[C@@H]1CCC(C)=C[C@H]1c1c(O)cc(CCC)c(C(=O)OCCCCCC)c1O` [HCBDV (9), n-hexyl cannabidivarinolate] the Ki was 8.3 ± 0.69 nM.
`C=C(C)[C@@H]1CCC(C)=C[C@H]1c1c(O)cc(CCCCC)c(C(=O)OCCNS(C)(=O)=O)c1O` [NMSC (6), 2-(methylsulfonamido)ethyl cannabidiolate] gave a Ki of 270 ± 40 nM.

What follows are compounds tested against T2, CB2-receptor (Homo sapiens, UniProt P34972) (assay: Competition binding against [3H]-CP55940, CB2 membranes). Settings: CB2 over CB1.
T2 construct: expressed in transfected cells; host or cells: CHO cells, stably transfected with CB2 cDNA (from IMIBIC) and transiently with CRE-luc
T2 sequence (P34972 whole entry): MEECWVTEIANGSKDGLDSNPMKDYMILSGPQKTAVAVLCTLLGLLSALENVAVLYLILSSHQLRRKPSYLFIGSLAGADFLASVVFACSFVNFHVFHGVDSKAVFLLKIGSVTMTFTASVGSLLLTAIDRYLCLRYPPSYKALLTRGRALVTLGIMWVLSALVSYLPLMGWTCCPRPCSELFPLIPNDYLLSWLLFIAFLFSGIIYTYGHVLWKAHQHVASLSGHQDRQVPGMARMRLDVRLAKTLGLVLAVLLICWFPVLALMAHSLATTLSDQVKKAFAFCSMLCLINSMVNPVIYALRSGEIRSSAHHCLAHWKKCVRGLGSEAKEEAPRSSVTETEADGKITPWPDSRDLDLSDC
With `C=C(C)[C@@H]1CCC(C)=C[C@H]1c1c(O)cc(CCCCC)c(C(=O)OCCNS(C)(=O)=O)c1O` [NMSC (6), 2-(methylsulfonamido)ethyl cannabidiolate] the “preference for the CB2-receptor” value was 22.5 fold.

Same assay, conditions: mean ± SEM, n = 3; radioligand [3H]-CP55940
For `C=C(C)[C@@H]1CCC(C)=C[C@H]1c1c(O)cc(CCC)c(C(=O)OCCCCCC)c1O` [HCBDV (9), n-hexyl cannabidivarinolate], the Ki was 9.9 ± 2.5 nM.
`C=C(C)[C@@H]1CCC(C)=C[C@H]1c1c(O)cc(CCCCC)c(C(=O)OCCNS(C)(=O)=O)c1O` [NMSC (6), 2-(methylsulfonamido)ethyl cannabidiolate] showed a Ki of 12 ± 1 nM.

Same assay, conditions: ratio of Ki values
With `C=C(C)[C@@H]1CCC(C)=C[C@H]1c1c(O)cc(CCC)c(C(=O)OCCCCCC)c1O` [HCBDV (9), n-hexyl cannabidivarinolate] the “Selectivity CB2/CB1” value was 0.8.
In the case of `C=C(C)[C@@H]1CCC(C)=C[C@H]1c1c(O)cc(CCCCC)c(C(=O)OCCNS(C)(=O)=O)c1O` [NMSC (6), 2-(methylsulfonamido)ethyl cannabidiolate], the “Selectivity CB2/CB1” value is reported as 22.5.

What follows are compounds tested against T1, CB1-receptor (assay: cAMP-dependent luciferase assay in CHO-CB1-CRE-luc cells). Settings: 15 min pre-incubation, then 1 µmol/L WIN for 6 h.
Assay type: cell-based
Method: (§1) Briefly, CHO cells were stably transfected with CB1- and CB2-receptor complementary DNAs (cDNAs) (kindly provided by IMIBIC). Around 10^5 transfected cells per milliliter were seeded in 24-well plates and transiently transfected with the plasmid CRE-luc using Roti-Fect (Carl Roth, Karlsruhe) following the manufacturer’s instructions. The cells were harvested after 24 h. Two transfected cell types resulted: CHO-CB1-CRE-luc and CHO-CB2-CRE-luc.
(§2) To test for agonistic activity at the CB1-receptor, the CHO-CB1-CRE-luc cells were stimulated for 6 h with increasing concentrations of the test compounds ([Bouaboula et al. 1997]). Forskolin (FSK), a strong CB-receptor-independent activator of adenylyl-cyclase was used at 10 µmol/L as a positive control. To investigate the antagonistic activity, the CHO-CB1-CRE-luc cells were pre-incubated for 15 min with the test compounds before stimulation for 6 h with 1 µmol/L WIN ([Zheng et al. 2013]). To investigate CB2-receptor agonistic activity, CHO-CB2-CRE-luc cells were pre-incubated for 15 min with increasing concentrations of the test substances and then for 6 h with 10 µmol/L FSK. WIN, a non-specific agonist at CB2-receptors, was used as a positive control. To confirm CB2-receptor agonistic activities of the test compounds, CHO-CB2-CRE-luc cells were pre-incubated with the specific CB2-receptor antagonist AM630 (1 µmol/L, 6-iodopravadoline; Cayman, distributed by Biozol, Hamburg) ([Ross et al. 1999]; [Zheng et al. 2013]) and then treated with increasing concentrations of the test substances.
(§3) After the stimulations and incubations, cells were lysed in a solution of 25 mmol Tris-phosphate (pH = 7.8), 8 mmol MgCl2, 1 mmol dithiothreitol (DTT), 1% Triton X-100, and 7% glycerol. The luciferase activity was measured with a Luciferase Assay Kit (Promega, Madison) according to the manufacturer’s instructions using an AutoLumat LB 9501 (Berthold Technologies, Bad Wildbad).
`C=C(C)[C@@H]1CCC(C)=C[C@H]1c1c(O)cc(CCCCC)c(C(=O)OCCNS(C)(=O)=O)c1O` [NMSC (6), 2-(methylsulfonamido)ethyl cannabidiolate] was tested, and the “CB1-receptor antagonistic activity (fold induction of CRE-luc)” value was “dose-dependent activity; also recorded: strongly CB1 antagonistic”.

Same assay, conditions: 6 h stimulation with test compound
For `C=C(C)[C@@H]1CCC(C)=C[C@H]1c1c(O)cc(CCC)c(C(=O)OCCCCCC)c1O` [HCBDV (9), n-hexyl cannabidivarinolate], the “CB1-receptor agonistic activity (fold induction of CRE-luc)” value was “agonistic effects”.

Same assay, conditions: CHO-CB1-CRE-luc, summary classification
In the case of `C=C(C)[C@@H]1CCC(C)=C[C@H]1c1c(O)cc(CCC)c(C(=O)OCCCCCC)c1O` [HCBDV (9), n-hexyl cannabidivarinolate], the “Effect on CB1” value is reported as “Agonist”.
With `C=C(C)[C@@H]1CCC(C)=C[C@H]1c1c(O)cc(CCCCC)c(C(=O)OCCNS(C)(=O)=O)c1O` [NMSC (6), 2-(methylsulfonamido)ethyl cannabidiolate] the “Effect on CB1” value was “Antagonist”.

What follows are compounds tested against T2, CB2-receptor (assay: cAMP-dependent luciferase assay in CHO-CB2-CRE-luc cells). Settings: 15 min pre-incubation, then 10 µmol/L FSK for 6 h.
Assay type: cell-based
Method: as §1, §2, §3
In the case of `C=C(C)[C@@H]1CCC(C)=C[C@H]1c1c(O)cc(CCC)c(C(=O)OCCCCCC)c1O` [HCBDV (9), n-hexyl cannabidivarinolate], the “CB2-receptor agonistic activity (fold induction of CRE-luc)” value is reported as “no effect”.

Same assay, conditions: CHO-CB2-CRE-luc, summary classification
In the case of `C=C(C)[C@@H]1CCC(C)=C[C@H]1c1c(O)cc(CCC)c(C(=O)OCCCCCC)c1O` [HCBDV (9), n-hexyl cannabidivarinolate], the “Effect on CB2” value is reported as “No activity”.
`C=C(C)[C@@H]1CCC(C)=C[C@H]1c1c(O)cc(CCCCC)c(C(=O)OCCNS(C)(=O)=O)c1O` [NMSC (6), 2-(methylsulfonamido)ethyl cannabidiolate] was tested, and the “Effect on CB2” value was “Agonist”.

Same assay, conditions: same dose as 1 µmol/L WIN
For `C=C(C)[C@@H]1CCC(C)=C[C@H]1c1c(O)cc(CCCCC)c(C(=O)OCCNS(C)(=O)=O)c1O` [NMSC (6), 2-(methylsulfonamido)ethyl cannabidiolate], the “CB2 agonistic effect compared with positive control WIN” value was “similarly strongly agonistic”.

The compounds below were run on NFAT (assay: PMA/IO-induced NFAT-luc activation in Jurkat T-cells). Settings: 0.5–25 µmol/L.
Assay type: cell-based
Method: (§4) Jurkat T-cells (10^6 cells per milliliter) were transiently transfected with plasmids that contained an NF-κB-dependent (KBF-luc) or NFAT-dependent (NFAT-luc) promotors fused to the luciferase gene using Lipofectin (Life Technologies, Carlsbad) according to the manufacturer’s instructions ([Yano et al. 1987]; [Durand et al. 1988]). Twenty-four hours after transfection, cells were stimulated for 30 min with increasing doses of the test compounds or WIN as a control (Tocris, Bristol). Then PMA (50 ng/ml)—for NFAT-luc—plus ionomycin (0.5 µg/ml) (Sigma-Aldrich, St. Louis) was added, followed by a 6 h incubation period.
as §3
For `C=C(C)[C@@H]1CCC(C)=C[C@H]1c1c(O)cc(CCCCC)c(C(=O)OCCNS(C)(=O)=O)c1O` [NMSC (6), 2-(methylsulfonamido)ethyl cannabidiolate], the “Inhibition of PMA/IO-induced NFAT activation” value was “significantly inhibited”.

Each compound was assayed on NF-κB (assay: PMA-induced NF-κB-luc (KBF-luc) activation in Jurkat T-cells). Settings: 0.5–25 µmol/L.
Assay type: cell-based
Method: as §4, §3
For `C=C(C)[C@@H]1CCC(C)=C[C@H]1c1c(O)cc(CCCCC)c(C(=O)OCCNS(C)(=O)=O)c1O` [NMSC (6), 2-(methylsulfonamido)ethyl cannabidiolate], the “Inhibition of PMA-induced NF-κB activation” value was “inhibited”.

These compounds were tested on RAW264.7 macrophages (assay: IL-17-induced polarization to pro-inflammatory M1 macrophages (qPCR)). Settings: RAW264.7, 0.5 to 10 µmol/L.
Assay type: cell-based
Method: To assess the IL-17-induced polarization to pro-inflammatory M1 macrophages, RAW264.7 macrophages (10^6 cells per Petri dish) were incubated for 18 h with or without the test compounds containing 0.1% FBS. Subsequently, they were stimulated for 24 h with recombinant murine IL-17 (50 ng/ml; R&D Systems, Minneapolis). The CB2-receptor agonist JWH-133 was used as a positive control. Then, the messenger RNA (mRNA) was extracted using RNeasy Mini Kits (Qiagen, Hilden), and its purity determined by UV measurements at 260 and 280 nm. The induction of IL-6, IL-1β, CC-chemokine ligand 2 (CCL2), and tumor necrosis factor (TNF)-α mRNA was assessed as markers of pro-inflammatory activity using quantitative real-time polymerase chain reactions (qPCRs).
mRNA reverse transcription in cDNA was performed with iQ™ SYBR Green Supermix and the CFX96 real-time PCR system (Bio-Rad, Hercules). The amplification consisted of a 5 min denaturation at 95°C followed by 40 cycles each of 30 s at 95°C and 30 s at 55°C (annealing). Elongation for 30 s at 72°C came next, followed by a cycle for 10 s at 83°C and finally a cycle for 1 min at 72°C. Calculations were made according to the Livak method by quantifying glyceraldehyde 3-phosphate dehydrogenase (GAPDH) as a reference ([Schmittgen and Livak 2008]). The results are given as multiples of the reference gene ([…]).
For `C=C(C)[C@@H]1CCC(C)=C[C@H]1c1c(O)cc(CCCCC)c(C(=O)OCCNS(C)(=O)=O)c1O` [NMSC (6), 2-(methylsulfonamido)ethyl cannabidiolate], the “IL-17-stimulated CCL2 mRNA expression” value was “reduced compared to the control at all concentrations”, the “IL-17-stimulated IL-1β mRNA expression” value was “inhibited TNF-α and IL-1β only at low doses” and the “IL-17-stimulated IL-6 mRNA expression” value was “co-stimulated”. For the same compound, the “IL-17-stimulated TNF-α mRNA expression” value was “inhibited TNF-α and IL-1β only at low doses”.

What follows are compounds tested on primary human monocytes (assay: Anti-inflammatory effect on LPS-treated monocytes (ELISA)). Settings: LPS 10 ng/ml, 24 h.
Assay type: cell-based
Method: Human peripheral blood monocytes were prepared from healthy donors who provided written informed consent at the local blood bank (University Hospital of Freiburg, Germany). Mononuclear cells were isolated by density gradient centrifugation according to standard protocol ([English and Andersen, 1974]) using lymphocyte separation medium, (PAN Biotech, Aidenbach). Cells were resuspended in RPMI-1640 medium (Invitrogen/Thermo Fisher Scientific, Karlsruhe) containing 10% human serum (Hexacell, Berlin). About 5 × 10^5 cells per milliliter were seeded in 24-well plates and incubated at 37°C and 5% CO2. The medium and the non-adherent cells were removed by washing with PBS and fresh RPMI medium, and 1% human serum was added to each well.
To test the anti-inflammatory effect of the test compounds, monocytes were incubated for 30 min with increasing doses of the test compounds. Then lipopolysaccharide (LPS) (10 ng/ml; Escherichia coli, Sigma-Aldrich, St. Louis) was added followed by a 24 h incubation period. The supernatants were removed and the levels of IL-1β, IL-6, IL-8, TNF-α, and prostaglandin E2 (PGE2) determined by enzyme-linked immunosorbent assay (ELISA) performed according to the manufacturer’s instructions (IL-1β from Hiss, Freiburg; IL-6, IL-8, and TNF-α from ImmunoTools, Friesoythe; and PGE2 from Cayman, distributed by Biozol, Hamburg). Stimulation with LPS alone was considered 100%.
With `C=C(C)[C@@H]1CCC(C)=C[C@H]1c1c(O)cc(CCCCC)c(C(=O)OCCNS(C)(=O)=O)c1O` [NMSC (6), 2-(methylsulfonamido)ethyl cannabidiolate] the “LPS-induced IL-1β release” value was “enhanced”, the “LPS-induced IL-8 release” value was “significantly reduced” and the “LPS-induced PGE2 release” value was “significantly reduced”. The “LPS-induced TNF-α release” value was “significantly reduced”.
